Earlier results as cited in patent US12683165B2, “Positive electrode additive for lithium secondary battery, positive electrode active material comprising same, positive electrode, and lithium secondary battery” (LG ENERGY SOLUTION, LTD., priority 2021, dated 2026).

Settings: ether-based or carbonate-based solvent of a lithium-sulfur secondary battery electrolyte solution

O=c1[nH]c(=O)c2c3ccc4cccc5c6cccc7ccc(c12)c(c76)c3c45 [BPI, benzo[ghi]peryleneimide]
dissolution in electrolyte solution solvent: tends to be dissolved
